The values that follow come from ChEMBL document CHEMBL4118092, “Synthesis and Activity of a New Series of Antileishmanial Agents” (ACS Med Chem Lett, 2017).

Structures are written as SMILES. A value given as a limit tells only on which side of the number the result lay.

For series [1], the system named is Leishmania donovani. The series is described as follows: Antileishmanial activity against Leishmania donovani axenic amastigotes after 72 hrs by CellTiter reagent based assay. In kind it is functional, organism-based.
Series [2] deals with Leishmania donovani. The series can be described thus: Antileishmanial activity against Leishmania donovani axenic amastigotes infected in mouse J774 cells after 72 hrs by Draq5 staining based assay. In kind it is functional, organism-based. The conditions noted are these: J774, 72 h.
The next series has as its system J774.A1. The series is described as follows: Cytotoxicity against mouse J774.A1 cells after 72 hrs by MTS assay. Format: cell-based. The conditions noted are these: J774.A1, 72 h.
The nature of series [3]: Kinetic solubility of the compound in pH 7.4 PBS buffer. Format: physicochemical. The conditions noted are these: read-out: Kinetic_solubility.

Take `Cc1nn(-c2ccc3c(N)ncnc3c2)c2c1C(=O)CC(C)(C)C2`: the IC50 in the series with Leishmania donovani [1] is 2.42 µM; with Leishmania donovani [2], 1.33 µM; with J774.A1, more than 50 µM.

`COCCCNc1cc(-n2nc(C)c3c2CN(C(=O)COC)CC3=O)ccc1C(N)=O`: the IC50 in the series with Leishmania donovani [1] is 4.48 µM; in the series with Leishmania donovani [2] it was 3.58 µM; with J774.A1, more than 50 µM.

For the compound `CCC(=O)N1CC(=O)c2c(C)nn(-c3ccc(C(N)=O)c(NCCCOC)c3)c2C1`, the IC50 in the series on Leishmania donovani [1] is 6.43 µM; in the series on Leishmania donovani [2] it was 3.54 µM; in the series with J774.A1 it was more than 50 µM.

For the compound `COCCCNc1cc(-n2nc(C)c3c2CC(C)(C)CC3=O)ccc1C(N)=O`, the values for the IC50 in the series on Leishmania donovani [1], in the series with Leishmania donovani [2] and with J774.A1 were 0.65 µM, 0.88 µM and 3.52 µM, respectively.

As to `COCCCNc1cc(-n2nc(C)c3c2CN(C(N)=O)CC3=O)ccc1C(N)=O`, the results for the IC50 in the series on Leishmania donovani [1], in the series with Leishmania donovani [2] and in the series on J774.A1 were more than 20 µM, more than 10 µM and more than 50 µM, respectively.

In the case of `COCCCNc1cc(-n2nc(C)c3c2CN(C(C)=O)CC3=O)ccc1C(N)=O`, the solubility kinetic in series [3] was more than 490 µM. In addition, the IC50 with Leishmania donovani [1] is 13.9 µM; with Leishmania donovani [2] it was 1.06 µM; in the series with J774.A1, more than 50 µM.

For `COCCCNc1cc(-n2nc(C)c3c2CN(C(=O)c2ccc(C)cc2)CC3=O)ccc1C(N)=O`, the IC50 is 2.6 µM with Leishmania donovani [1], 1.75 µM in the series with Leishmania donovani [2] and 26.3 µM in the series on J774.A1.

For `COCCCNc1cc(-n2nc(C)c3c2CN(S(C)(=O)=O)CC3=O)ccc1C(N)=O`, the IC50 in the series with Leishmania donovani [1] was more than 20 µM; in the series with Leishmania donovani [2], 5.38 µM; with J774.A1, 25.5 µM.

As to `COCCCNc1cc(-n2nc(C)c3c2CN(C(=O)C(C)C)CC3=O)ccc1C(N)=O`, the IC50 in the series on Leishmania donovani [1] turned out to be 1.9 µM; in the series on Leishmania donovani [2] it was 3.54 µM; in the series on J774.A1, 37.3 µM.

With `COCCCNc1cc(-n2nc(C)c3c2CN(Cc2ccccc2)CC3=O)ccc1C(N)=O`, the IC50 with Leishmania donovani [1] was 2.29 µM; in the series with Leishmania donovani [2] it was 6.33 µM; in the series with J774.A1 it was more than 50 µM.

For `COCCCNc1cc(-n2nc(C)c3c2CNCC3=O)ccc1C(N)=O`, the IC50 in the series on Leishmania donovani [1] is 3.9 µM; in the series on Leishmania donovani [2], more than 10 µM; in the series on J774.A1, more than 50 µM.

With `COCCCNc1cc(-n2nc(C)c3c2CN(C(=O)NCc2ccccc2)CC3=O)ccc1C(N)=O`, the figures for the IC50 in the series on Leishmania donovani [1], in the series on Leishmania donovani [2] and in the series on J774.A1 were more than 20 µM, more than 10 µM and more than 50 µM, respectively.

For the compound `COCCCNc1cc(-n2nc(C)c3c2CN(C(=O)C2CCCC2)CC3=O)ccc1C(N)=O`, the IC50 is 2.99 µM with Leishmania donovani [1], 1.52 µM in the series with Leishmania donovani [2] and more than 50 µM in the series on J774.A1.

In the case of `COCCCNc1cc(-n2nc(C)c3c2CCCC3=O)ccc1C(N)=O`, the IC50 was more than 25 µM in the series with Leishmania donovani [1], more than 10 µM in the series on Leishmania donovani [2] and more than 50 µM with J774.A1.

`CCCCCCCCCCCCCCCCOP(=O)([O-])OCC[N+](C)(C)C` [MILTEFOSINE]: the IC50 in the series on Leishmania donovani [1] was 3.26 µM; with Leishmania donovani [2], 1.43 µM; with J774.A1, more than 50 µM.

In the case of `C[C@@H]1C[C@H]2O[C@@H]2/C=C\C=C\C(=O)Cc2c(Cl)c(O)cc(O)c2C(=O)O1` [RADICICOL], the IC50 with Leishmania donovani [1] is 0.62 µM; in the series on Leishmania donovani [2], 0.29 µM; in the series on J774.A1 it was 2.35 µM.

For the compound `CC1(C)CC(=O)c2c(C(F)(F)F)nn(-c3ccc(C(N)=O)c(N[C@H]4CC[C@H](O)CC4)c3)c2C1` [SNX-2112], the IC50 is 0.42 µM with Leishmania donovani [1], 0.61 µM in the series with Leishmania donovani [2] and less than 0.06 µM with J774.A1.
